Measurements from patent publication EP0337598A2, “Use of porphyrins and metalloporphyrins in the treatment of diseases caused by Human Immunodeficiency Viruses” (GEORGIA STATE UNIVERSITY FOUNDATION, INC., priority 1988, dated 1989).
Where a name gives a salt, the structure may show the parent alone. Read-outs that look alike come from different tables or passages of the source.

Assays:
LAV strain of HIV = test: Assay of anti-HIV activity: HIV production in infected MT-4 cells; type: cell-based; conditions: in the dark, result in words
[1] = intravenous, cat; cited from earlier work
[2] = test system: Herpes simplex virus (HSV) type 1, strain WT-51; test: Anti-HSV activity: virus infectivity in culture fluid of infected BS-C-40 monolayers by plaque method; type: cell-based; conditions: m.o.i. 0.01, 18 hours of incubation, result in words
Description: Herpes simplex virus (HSV) type 1, strain WT-51, and BS-C-40, an African green monkey kidney cell line, were used. HSV stock was prepared in BS-C-40 and the infectivity of the virus was measured on BS-C-40 monolayers by plaque method. Eagle's minimal essential medium (MEM) supplemented with 8% newborn calf serum was used as the culture medium and cells were incubated at 37°C in a humidified CO₂-incubator (5% CO₂, 95% air).
BS-C-40 monolayers were infected with HSV at the m.o.i. of 0.01 at 37°C for 1 hour and the monolayers were washed with MEM, and fresh culture medium was added. After 18 hours of incubation in the presence or absence of protoporpyrin, the virus infectivity in the culture fluid was measured by plaque method.
Two tenths ml aliquots of serially 10-fold diluted virus were inoculated onto confluent monolayer of cells in 35 mm plastic petridishes. After adsorption of the virus at 37°C for 1 hour, the monolayers were overlaid with 2 ml of MEM with 1% methylcellulose and 2% newborn calf serum. On day 3, the monolayers were stained with neutral red and plaque counts were made.

[3] = intravenous, rabbit; cited from earlier work
[4] = mouse, cited from earlier work
[5] = intravenous, rat; cited from earlier work

SMILES: C=CC1=C(C)c2cc3[nH]c(cc4nc(cc5[nH]c(cc1n2)c(C)c5CCC(=O)O)C(CCC(=O)O)=C4C)c(C)c3C=C [Protoporphyrin disodium salt]
- anti-HIV activity (antivirally active when production of HIV was reduced as compared with the control) (LAV strain of HIV): potent anti-HIV activity
- LD₅₀ [1]: 215.5 mg/kg
- anti-HSV activity [2]: no anti-HSV activity
- LD₅₀ [3]: 220.0 mg/kg
- LD₅₀ ([4]; intraperitoneal): 1,028.6 mg/kg
- LD₅₀ ([4]; intravenous): 347.3 mg/kg
- LD₅₀ ([4]; oral): > 25,000.0 mg/kg
- LD₅₀ ([4]; subcutaneous): 1,147.0 mg/kg
- LD₅₀ [5]: 240.3 mg/kg
